Measurements as given in patent US20040127518A1, “Modulation of anxiety through blockade of anandamide hydrolysis” (priority 2002, published 2004).
Counter-ions that a name gives are not always drawn. Like-named read-outs stand apart in the source and are kept apart here.

Assays:
[1] = target: T1, FAAH (Rattus norvegicus, UniProt P97612); experiment: biochemical; type: biochemical; set-up: from tissue; host or cells: rat brain (membrane fraction of homogenate; Wistar rats)
T1 sequence (P97612 1-579): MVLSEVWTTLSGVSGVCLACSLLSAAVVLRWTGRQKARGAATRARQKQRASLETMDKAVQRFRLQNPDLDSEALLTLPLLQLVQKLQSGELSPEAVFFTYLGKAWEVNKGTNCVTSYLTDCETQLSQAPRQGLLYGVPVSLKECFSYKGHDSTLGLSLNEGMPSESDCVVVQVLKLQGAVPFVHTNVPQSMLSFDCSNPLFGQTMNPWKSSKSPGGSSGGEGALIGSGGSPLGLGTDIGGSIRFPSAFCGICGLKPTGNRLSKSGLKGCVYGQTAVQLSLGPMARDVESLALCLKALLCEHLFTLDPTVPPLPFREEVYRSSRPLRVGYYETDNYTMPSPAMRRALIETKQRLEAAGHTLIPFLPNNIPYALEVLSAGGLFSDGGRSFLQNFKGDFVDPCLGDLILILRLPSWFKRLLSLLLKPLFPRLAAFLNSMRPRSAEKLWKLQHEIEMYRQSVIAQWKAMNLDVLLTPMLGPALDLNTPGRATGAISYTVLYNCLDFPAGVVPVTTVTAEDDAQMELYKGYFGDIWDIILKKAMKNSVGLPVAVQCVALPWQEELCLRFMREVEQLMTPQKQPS

[2] = target: electric eel acetylcholinesterase (Electrophorus electricus, UniProt O42275); experiment: biochemical
Source text: We prepared cell fractions from rat brain homogenates, and assayed membrane FAAH activity and cytosol MGL activity using anandamide [ethanolamine-3H] (American Radiolabeled Chemicals, ARC (St. Louis Mo.), 60 Ci/mmol) and 2-mono-oleoyl-glycerol-[glycerol-1,2,3^−3H] (ARC, St. Louis Mo., 20 Ci/mmol), respectively, as substrates (Dinh, T. Proc. Natl. Acad. Sci. U.S.A. (2002)). We conducted [^3H]anandamide transport assays in human astrocytoma cells (Piomelli, D. et al., Proc. Natl. Acad. Sci. U.S.A., 96, 5802-5807 (1999)); CB1 and CB2 binding assays in rat cerebellar membranes and CB2-overexpressing Chinese hamster ovary cells (Receptor Biology-Perkin Elmer, Wellesley, Mass.), respectively, using [^3H]WIN-55212-2 (NEN-Dupont, Boston, Mass., 40-60 Ci/mmol) as a ligand (Devane, W. A. et al. Science, 258, 1946-1949 (1992)); cholinesterase assays with a commercial kit (Sigma, St. Louis, Mo.), using purified enzymes (electric eel acetylcholinesterase type V-S and horse serum cholinesterase; both from Sigma, St. Louis, Mo.) and following manufacturer's instructions.

[3] = Inhibition of Amidohydrolase IC50(μM)
[4] = Table 4, FAAH IC50, read-out: Inhibition of Amidohydrolase IC50
[5] = Table 5, rat brain membranes, [3H]anandamide, read-out: IC50 (nM) ± S.E.M.
[6] = Table 6, meta-substituted derivatives, read-out: pIC50 obsd (converted)
[7] = Table 3, read-out: Amidohydrolase IC50
[8] = rat brain membranes, read-out: IC50
[9] = read-out: Inhibition of Amidohydrolase IC50
[10] = Table 1, rat brain membranes, mean of at least three experiments, read-out: IC50

electric eel acetylcholinesterase, sequence (O42275 whole entry): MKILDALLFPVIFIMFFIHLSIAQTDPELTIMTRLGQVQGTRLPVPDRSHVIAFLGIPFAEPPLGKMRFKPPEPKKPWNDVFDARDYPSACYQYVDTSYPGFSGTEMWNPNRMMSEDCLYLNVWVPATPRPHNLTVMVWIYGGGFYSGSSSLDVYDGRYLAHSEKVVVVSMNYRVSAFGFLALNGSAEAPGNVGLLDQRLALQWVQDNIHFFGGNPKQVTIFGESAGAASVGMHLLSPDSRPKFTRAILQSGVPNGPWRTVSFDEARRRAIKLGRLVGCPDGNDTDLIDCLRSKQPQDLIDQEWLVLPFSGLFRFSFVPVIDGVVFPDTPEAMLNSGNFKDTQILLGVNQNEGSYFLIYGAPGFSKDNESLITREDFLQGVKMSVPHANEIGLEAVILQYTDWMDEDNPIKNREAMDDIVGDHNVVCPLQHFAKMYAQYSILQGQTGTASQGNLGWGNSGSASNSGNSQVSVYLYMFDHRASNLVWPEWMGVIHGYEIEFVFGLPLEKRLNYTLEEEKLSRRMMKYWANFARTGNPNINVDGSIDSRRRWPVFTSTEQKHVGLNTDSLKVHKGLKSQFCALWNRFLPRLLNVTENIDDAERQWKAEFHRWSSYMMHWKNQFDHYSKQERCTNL

O=C(NC1CCCCC1)Oc1cccc(-c2cccc(C(F)(F)F)c2)c1 [PL#44]
IC50 [1, 3]: 0.13 µM

O=C(NC1CCCCC1)Oc1ccc2ccn(-c3ccccc3)c2c1 [#36]
IC50 [1, 4]: 1.4 µM

Cc1cccc(-c2cccc(OC(=O)NC3CCCCC3)c2)c1 [PL#43]
IC50 [1, 4]: 0.1 µM

Nc1ccc(-c2ccccc2)cc1OC(=O)NC1CCCCC1 [PL#61]
IC50 [1, 4]: > 30 µM

CCCc1cccc(-c2cccc(OC(=O)NC3CCCCC3)c2)c1 [PL#62]
IC50 [1, 3]: 0.08 µM

O=C(NC1CCCCC1)Oc1cccc(-c2cccc([N+](=O)[O-])c2)c1 [Compound 3q]
IC50 [1, 5]: 0.0496 ± 0.002 µM
IC50 [1, 6]: 0.0501 µM

Nc1ccc(-c2cccc(OC(=O)NC3CCCCC3)c2)cc1 [Compound 3d]
IC50 ([1]; IC50 (nM) ± S.E.M.): 0.36 ± 0.059 µM

O=C(NC1CCCCC1)Oc1cccc(-c2cccc(Oc3ccccc3)c2)c1 [#35]
IC50 [1, 4]: 2.6 µM

O=C(NC1CCCCC1)Oc1cccc(-c2ccc(C(F)(F)F)cc2)c1 [PL#38]
IC50 [1, 3]: 1.6 µM

O=C(NC1CCCCC1)Oc1ccc([N+](=O)[O-])c(-c2ccccc2)c1 [PL#58]
IC50 [1, 4]: > 30 µM

O=C(NC1CCCCC1)Oc1ccc2ccccc2c1 [PL#11, 2-naphthyl N-cyclohexylcarbamate]
IC50 [1, 7]: 0.33 µM
IC50 [1, 4]: 0.33 µM
IC50 [1, 8]: 0.324 ± 0.031 µM
IC50 [2]: > 30000 nM

O=C(NC(=O)c1ccc(OC(=O)NC2CCCCC2)cc1-c1ccccc1)NC1CCCCC1 [PL#50]
IC50 [1, 4]: 3.1 µM

NC(=O)c1ccc(OC(=O)NC2CCCCC2)cc1-c1ccccc1 [PL#49]
IC50 [1, 4]: 0.2 µM

O=C(NC1CCCCC1)Oc1cccc(-c2cccc(O)c2)c1 [Compound 3u]
IC50 ([1]; IC50 (nM) ± S.E.M.): 0.00865 ± 0.0001 µM
IC50 ([1]; pIC50 obsd): 0.00871 µM

O=C(NC1CCCCC1)Oc1ccc(-c2ccccc2)cc1 [PL#5, 4-biphenyl N-cyclohexylcarbamate]
IC50 ([1]; read-out: Amidohydrolase IC50): 2.3 µM
IC50 [1, 9]: 2.3 µM
IC50 [2]: > 30000 nM

NCc1cccc(-c2cccc(OC(=O)NC3CCCCC3)c2)c1 [Compound 3z]
IC50 ([1]; IC50 (nM) ± S.E.M.): 21.2 µM

O=C(Nc1ccc2ccccc2c1)N1CCCCC1 [PL#22]
IC50 [1, 4]: > 30 µM

O=C(NC1CCCCC1)Oc1cccc(-c2cccc(CCO)c2)c1 [Compound 3w]
IC50 [1, 5]: 0.0187 ± 0.0045 µM
IC50 [1, 6]: 0.0186 µM

NC(=O)c1ccc(-c2cccc(OC(=O)NC3CCCCC3)c2)cc1 [Compound 3c]
IC50 [1, 5]: 5.91 µM

Cc1ccc(-c2cccc(OC(=O)NC3CCCCC3)c2)cc1 [PL#37]
IC50 [1, 4]: 0.23 µM

N#Cc1cccc(-c2cccc(OC(=O)NC3CCCCC3)c2)c1 [Compound 3t]
IC50 [1, 5]: 0.0339 ± 0.007 µM
IC50 [1, 6]: 0.0339 µM

Cc1cccc(NC(=O)OC2CCCCC2)c1 [PL#57]
IC50 [1, 4]: 0.8 µM

CC(C)(C)NC(=O)Oc1ccc(-c2ccccc2)cc1Cl [PL#10, 3-chloro-4-biphenylyl N-tert-butylcarbamate]
IC50 [1, 7]: > 30 µM
IC50 [1, 4]: > 30 µM
IC50 [2]: > 30000 nM

O=C(NC1CCCCC1)Oc1ccc(/C=C\c2ccccc2)cc1 [PL#25]
IC50 [1, 3]: 0.24 µM

CCCCNC(=O)Nc1cccc2ccccc12 [PL#23]
IC50 [1, 4]: > 30 µM

O=C(NC1CCCCC1)Oc1cccc(-c2cccc(-c3ccccc3)c2)c1 [#34]
IC50 [1, 4]: 0.56 µM

O=C(NC1CCCCC1)Oc1cccc(-c2cccc(C(F)(F)F)c2)c1 [Compound 3g]
IC50 ([1]; IC50 (nM) ± S.E.M.): 0.146 ± 0.016 µM
IC50 ([1]; pIC50 obsd): 0.145 µM

O=C(NC1CCCCC1)Oc1cccc(-c2cccc(CO)c2)c1 [Compound 3v]
IC50 [1, 5]: 0.00867 ± 0.0009 µM
IC50 [1, 6]: 0.00871 µM

Nc1cccc(-c2cccc(OC(=O)NC3CCCCC3)c2)c1 [Compound 3j]
inhibition of FAAH activity (in words) [1]: as potent as the parent compound
IC50 ([1]; IC50 (nM) ± S.E.M.): 0.0646 ± 0.009 µM
IC50 ([1]; pIC50 obsd): 0.0646 µM

O=C(Nc1ccccc1)OC1CCCCC1 [PL#56]
IC50 [1, 4]: 3.1 µM

O=C(NC1CCCCC1)Oc1cccc(-c2cccc(F)c2)c1 [PL#47]
IC50 [1, 4]: 0.092 µM

CC1=CC(C)(C)N(C(=O)NC2CCCCC2)c2cc(C)c(C)cc21 [PL#19]
IC50 [1, 4]: > 30 µM

O=C(NC1CCCCC1)Oc1cccc(-c2cccc(F)c2)c1 [Compound 3k]
IC50 [1, 5]: 0.0966 ± 0.004 µM
IC50 [1, 6]: 0.0955 µM

CCCCOC(=O)Oc1ccc(C(=O)Oc2ccc(OC)cc2)cc1 [PL#17, O-butyl 4-(4-methoxyphenoxycarbonyl)-phenyl carbonate]
IC50 [1, 7]: 9.1 µM
IC50 [1, 4]: 9.1 µM
IC50 [2]: > 30000 nM

Cc1ccc(OC(=O)NC2CCCCC2)cc1 [PL#6, p-toly-N-cyclohexy carbamate]
IC50 [1, 7]: 5.4 µM
IC50 [1, 4]: 5.4 µM
IC50 [2]: > 30000 nM

CCCc1cccc(-c2cccc(OC(=O)NC3CCCCC3)c2)c1 [Compound 3p]
IC50 ([1]; IC50 (nM) ± S.E.M.): 0.11 ± 0.016 µM
IC50 ([1]; pIC50 obsd): 0.11 µM

NS(=O)(=O)c1cccc(-c2cccc(OC(=O)NC3CCCCC3)c2)c1 [Compound 3r]
IC50 [1, 5]: 0.0265 ± 0.0045 µM
IC50 [1, 6]: 0.0263 µM

Cc1cccc(-c2cccc(OC(=O)NC3CCCCC3)c2)c1 [Compound 3h]
IC50 [1, 5]: 0.0617 ± 0.019 µM
IC50 [1, 6]: 0.0617 µM
inhibition of FAAH activity (in words) ([1]; rat brain membranes): as potent as the parent compound

O=C(NC1CCCCC1)Oc1ccc2cccc(Br)c2c1 [PL#27]
IC50 [1, 4]: 0.17 µM

O=C(NC1CCCCC1)Oc1cccc(-c2cccc(Oc3ccccc3)c2)c1 [Compound 3m]
IC50 [1, 5]: 0.42 ± 0.086 µM
IC50 [1, 6]: 0.417 µM

O=C(NC1CCCCC1)Oc1ccc(/C=C/c2ccccc2)cc1 [PL#24]
IC50 [1, 9]: 3.3 µM

CNC(=O)Oc1ccc2ccccc2c1 [PL#4, 2-naphtyl-N-methylcarbamate]
IC50 [1, 10]: 18.6 µM
IC50 [1, 7]: 18.7 µM
IC50 [1, 4]: 18.6 µM
IC50 ([1]; rat brain membranes, mean±SEM, n=3, read-out: IC50): 18.6 ± 0.7 µM
IC50 [2]: > 30000 nM

O=C(NC1CCCCC1)Oc1cc(-c2ccccc2)ccc1[N+](=O)[O-] [PL#60]
IC50 [1, 4]: > 30 µM

O=C(NC(=O)c1ccc(-c2cccc(OC(=O)NC3CCCCC3)c2)cc1)NC1CCCCC1 [Compound 3f]
IC50 ([1]; IC50 (nM) ± S.E.M.): 3.02 µM

O=C(NC1CCCCC1)Oc1cccc(-c2ccc(C(F)(F)F)cc2)c1 [Compound 3a]
IC50 ([1]; IC50 (nM) ± S.E.M.): 1.59 µM

CNC(=O)Oc1ccc2c(c1)[C@@]1(C)CCN(C)[C@H]1N2C [PL#16, (−)-Physostigmine sulfate, reference compound]
IC50 [1, 7]: > 30 µM
IC50 [1, 4]: > 30 µM

O=C(NC1CCCCC1)Oc1cccc(-c2cccc(Cc3ccccc3)c2)c1 [Compound 3o]
IC50 [1, 5]: 1.86 µM
IC50 [1, 6]: 1.86 µM

O=C(Oc1ccccc1)N1CCCCC1 [PL#1, 1-phenyl-N-piperidinecarboxylate]
IC50 [1, 7]: > 30 µM
IC50 [1, 4]: > 30 µM
IC50 [2]: > 30000 nM

CCc1ccc2cc(OC(=O)NC3CCCCC3)ccc2c1 [PL#28]
IC50 [1, 3]: 3 µM

CCCCCc1cccc(OC(=O)NC2CCCCC2)c1 [#33]
IC50 [1, 4]: 0.22 µM

O=C(Nc1ccc(Cl)cc1)NC1CCCCC1 [PL#21]
IC50 [1, 4]: > 30 µM

Cc1ccc(-c2cccc(OC(=O)NC3CCCCC3)c2)cc1 [Compound 3b]
IC50 [1, 5]: 0.155 ± 0.021 µM

NC(=O)c1ccc(-c2cccc(OC(=O)NC3CCCCC3)c2)cc1 [PL#40]
IC50 [1, 4]: > 10 µM

CC(=O)c1cccc(-c2cccc(OC(=O)NC3CCCCC3)c2)c1 [Compound 3s]
IC50 [1, 5]: 0.0091 ± 0.0005 µM
IC50 [1, 6]: 0.00912 µM

Nc1ccc(-c2cccc(OC(=O)NC3CCCCC3)c2)cc1 [PL#39]
IC50 [1, 3]: 0.51 µM

O=C(NC1CCCCC1)Sc1ccc2ccccc2c1 [PL#52]
IC50 [1, 3]: 15 µM

O=C(Nc1cccc2ccccc12)NC1CCCCC1 [PL#20]
IC50 [1, 4]: > 30 µM

O=C(NC1CCCCC1)Oc1cccc(-c2cccc(OC(=O)NC3CCCCC3)c2)c1 [Compound 3l]
IC50 [1, 5]: 0.361 ± 0.137 µM
IC50 [1, 6]: 0.363 µM

CCCCNC(=O)Oc1ccc2cc(Br)ccc2c1 [PL#3, 6-bromo-2-naphtyhyl N-butylcarbamate]
IC50 [1, 7]: 0.76 µM
IC50 [1, 4]: 0.76 µM
IC50 [2]: > 30000 nM

O=C(NC1CCCCC1)Oc1cccc(-c2cccc(-c3ccccc3)c2)c1 [Compound 3n]
IC50 [1, 5]: 0.565 ± 0.042 µM
IC50 [1, 6]: 0.562 µM

Cc1ccc(OC(=O)NC2CCCCC2)cc1-c1ccccc1 [PL#48]
IC50 [1, 4]: 0.2 µM

O=C(NC1CCCCC1)Oc1cccc(-c2ccc(F)cc2)c1 [Compound 3e]
IC50 [1, 5]: 0.065 ± 0.014 µM
inhibition of FAAH activity (in words) ([1]; rat brain membranes): comparable IC50 value

CCNC(=O)OCC12CC3CC(CC(C3)C1)C2 [#31]
IC50 [1, 4]: > 30 µM

Nc1ccc(OC(=O)NC2CCCCC2)cc1-c1ccccc1 [PL#59]
IC50 [1, 4]: 0.05 µM

Nc1cccc(-c2cccc(OC(=O)NC3CCCCC3)c2)c1 [PL#45]
IC50 [1, 3]: 0.06 µM

O=C(NC(=O)c1ccc(-c2cccc(OC(=O)NC3CCCCC3)c2)cc1)NC1CCCCC1 [PL#42]
IC50 [1, 3]: ~30 µM

O=C(Nc1ccc(F)cc1)Oc1ccc(OCc2ccccc2)cc1 [PL#8, 4-(benzyloxy) phenyl N-(4-fluorophenyl)carbamate]
IC50 [1, 7]: > 30 µM
IC50 [1, 4]: > 30 µM
IC50 [2]: > 30000 nM

O=C(NC1CCCCC1)Oc1cccc(-c2ccccc2)c1 [URB524, cyclohexylcarbamic acid biphenyl-3-yl ester]
IC50 [1, 10]: 0.063 µM
IC50 [1, 4]: 0.06 µM
IC50 [1, 5]: 0.063 ± 0.009 µM
pIC50 obsd ([1]; Table 6, meta-substituted derivatives): 7.20
IC50 [1, 8]: 0.063 ± 0.009 µM

O=C(NC1CCCCC1)Oc1cccc(-c2ccc(F)cc2)c1 [PL#41]
IC50 [1, 4]: 0.09 µM
